Reference: PubChem BioAssay AID1963843 (Molecular Pharmacology Branch, DTP, NCI, 2024)

Test system: 616215-338-R-J1-PDC complex spheroid viability
Test: Anticancer human tumor 616215-338-R-J1-PDC patient-derived colon adenocarcinoma cell line growth inhibition [POLQ]
Settings: for IC50: curve of first compound; for viability, T/C: stronger effect = lower value
Method in brief: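 Complex spheroid viability model combining PDC tumour cells with endothelial (HUVEC) and MSC stromal cells. Novobiocin, ART-558 or RP6685 were tested singly and in combination with standard and investigational anticancer drugs. Each was titrated in half-log steps from near clinical Cmax, or from 10 microM where Cmax was unknown.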

[1] = second compound 0.0316 µM, first compound 0.0316 µM
[2] = second compound 0.0316 µM, first compound 0.1 µM
[3] = second compound 0.0316 µM, first compound 0.316 µM
[4] = second compound 0.0316 µM, first compound 1 µM
[5] = second compound 0.0316 µM, first compound 3.16 µM
[6] = second compound 0.0316 µM, first compound 10 µM
[7] = second compound 0.1 µM, first compound 0.0316 µM
[8] = second compound 0.1 µM, first compound 0.1 µM
[9] = second compound 0.1 µM, first compound 0.316 µM
[10] = second compound 0.1 µM, first compound 1 µM
[11] = second compound 0.1 µM, first compound 3.16 µM
[12] = second compound 0.1 µM, first compound 10 µM
[13] = second compound 0.316 µM, first compound 0.0316 µM
[14] = second compound 0.316 µM, first compound 0.1 µM
[15] = second compound 0.316 µM, first compound 0.316 µM
[16] = second compound 0.316 µM, first compound 1 µM
[17] = second compound 0.316 µM, first compound 3.16 µM
[18] = second compound 0.316 µM, first compound 10 µM
[19] = second compound 1 µM, first compound 0.0316 µM
[20] = second compound 1 µM, first compound 0.1 µM
[21] = second compound 1 µM, first compound 0.316 µM
[22] = second compound 1 µM, first compound 1 µM
[23] = second compound 1 µM, first compound 3.16 µM
[24] = second compound 1 µM, first compound 10 µM
[25] = second compound 3.16 µM, first compound 0.0316 µM
[26] = second compound 3.16 µM, first compound 0.1 µM
[27] = second compound 3.16 µM, first compound 0.316 µM
[28] = second compound 3.16 µM, first compound 1 µM
[29] = second compound 3.16 µM, first compound 3.16 µM
[30] = second compound 3.16 µM, first compound 10 µM
[31] = second compound 10 µM, first compound 0.0316 µM
[32] = second compound 10 µM, first compound 0.1 µM
[33] = second compound 10 µM, first compound 0.316 µM
[34] = second compound 10 µM, first compound 1 µM
[35] = second compound 10 µM, first compound 3.16 µM
[36] = second compound 10 µM, first compound 10 µM
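Also: spheroids exposed to compounds for one week before readout.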
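For viability, T/C in this document: percent viability relative to DMSO vehicle wells taken as 100%.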

CC(C)n1c(=O)n(C)c2cnc3cc(F)c(-c4ccc(OCCCN5CCCCC5)nc4)cc3c21 + Cc1cccc(N(C)C(=O)C2C(O)CCN2c2nc(C)cc(C(F)(F)F)c2C#N)c1
IC50 (second compound 0.0316 µM): > 10 µM
IC50 (second compound 0.1 µM): > 10 µM
IC50 (second compound 0.316 µM): > 10 µM
IC50 (second compound 1 µM): > 10 µM
IC50 (second compound 3.16 µM): > 10 µM
IC50 (second compound 10 µM): > 10 µM
viability, T/C [1]: 95.4%
viability, T/C [2]: 98.2%
viability, T/C [3]: 99.1%
viability, T/C [4]: 111%
viability, T/C [5]: 108%
viability, T/C [6]: 114%
viability, T/C [7]: 109%
viability, T/C [8]: 113%
viability, T/C [9]: 106%
viability, T/C [10]: 102%
viability, T/C [11]: 105%
viability, T/C [12]: 105%
viability, T/C [13]: 102%
viability, T/C [14]: 97.8%
viability, T/C [15]: 94.5%
viability, T/C [16]: 107%
viability, T/C [17]: 117%
viability, T/C [18]: 103%
viability, T/C [19]: 101%
viability, T/C [20]: 99.8%
viability, T/C [21]: 102%
viability, T/C [22]: 117%
viability, T/C [23]: 114%
viability, T/C [24]: 113%
viability, T/C [25]: 105%
viability, T/C [26]: 101%
viability, T/C [27]: 108%
viability, T/C [28]: 114%
viability, T/C [29]: 108%
viability, T/C [30]: 102%
viability, T/C [31]: 108%
viability, T/C [32]: 114%
viability, T/C [33]: 105%
viability, T/C [34]: 109%
viability, T/C [35]: 108%
viability, T/C [36]: 95.4%

COc1ccc([C@@H](O)c2cc(-c3ncnc4cc(N5CCOCC5)ccc34)c(F)cc2Cl)nn1 + Cc1cccc(N(C)C(=O)C2C(O)CCN2c2nc(C)cc(C(F)(F)F)c2C#N)c1
IC50 (second compound 0.0316 µM): > 10 µM
IC50 (second compound 0.1 µM): > 10 µM
IC50 (second compound 0.316 µM): > 10 µM
IC50 (second compound 1 µM): > 10 µM
IC50 (second compound 3.16 µM): > 10 µM
IC50 (second compound 10 µM): > 10 µM
viability, T/C [1]: 97.8%
viability, T/C [2]: 108%
viability, T/C [3]: 94.8%
viability, T/C [4]: 113%
viability, T/C [5]: 101%
viability, T/C [6]: 78.7%
viability, T/C [7]: 92.6%
viability, T/C [8]: 108%
viability, T/C [9]: 108%
viability, T/C [10]: 109%
viability, T/C [11]: 100%
viability, T/C [12]: 72.2%
viability, T/C [13]: 108%
viability, T/C [14]: 108%
viability, T/C [15]: 100%
viability, T/C [16]: 111%
viability, T/C [17]: 109%
viability, T/C [18]: 73.5%
viability, T/C [19]: 114%
viability, T/C [20]: 111%
viability, T/C [21]: 109%
viability, T/C [22]: 122%
viability, T/C [23]: 103%
viability, T/C [24]: 70.5%
viability, T/C [25]: 97.5%
viability, T/C [26]: 104%
viability, T/C [27]: 102%
viability, T/C [28]: 102%
viability, T/C [29]: 105%
viability, T/C [30]: 80.3%
viability, T/C [31]: 112%
viability, T/C [32]: 100%
viability, T/C [33]: 99.8%
viability, T/C [34]: 111%
viability, T/C [35]: 99.8%
viability, T/C [36]: 55.6%
